Measurements published in patent US20170275650A1, “ENDOSOMAL ESCAPE DOMAINS FOR […] OF MACR[…] CELLS” (priority 2014, published 2017).

How the values were obtained:
[1] = test system: GFPβ1-10 expressing H1299c#G3 cells; test: split GFP fluorescence complementation transduction assay (FACS); type: cell-based, human; conditions: dose-dependent comparison, up to 60 μM, FACS (FIG. 4, 5)
Experimental: (§1) Peptide transduction. All transduction experiments were performed in 48-well plates. An optimized protocol was established. First, 15,000 or 20,000 cells were plated in each well. Next day, the indicated peptides were pipetted into eppendorf tubes. Transduction buffer (60% OptiMEM and 40% PBS) was added to peptide (100 μl total volume), directly mixed by pipetting up and down five times and then immediately transferred to cells. All pipetting steps were done in a laminar flow cell culture hood and standardized to 15 min for each plate before transferring the plate of cells to a 37° C. CO2 incubator for 1.5 h before addition of 500 μl DMEM supplemented with 10% FBS and another incubation round for 3.5 h in the 37° C. CO2 incubator (alternatively cells were incubated 2 h with peptides and another 4 h with DMEM, 10% FBS (FIG. 8b, c, d). For the transduction time-course, cells were incubated with peptides in transduction buffer until indicated time-points. All cells were trypzinized and collected in 250 μl OptiMEM without phenol red and analyzed by FACS (GFP, FSC/SSC). 4000 viable cells were analyzed per sample. Data is presented as fold change in fluorescence compared to non-treated cells.
To address these problems, the disclosure provides a self-assembling, bimolecular or split GFP fluorescence complementation system that was originally designed to tag and monitor proteins. GFP is composed of 11 β-strands that form a barrel structure allowing for peptidyl backbone cyclization and formation of a fluorescent chromophore. […] Importantly, co-incubation of GFPβ1-10 with the GFPβ11 peptide in trans efficiently reconstitutes GFP fluorescent chromophore bond and GFP fluorescence (FIG. 1a). To study PTD-mediated delivery, cell lines were generated that constitutively expressed the non-fluorescent GFPβ1-10 fragment and treated them in trans with a GFPβ11-PTD/CPP peptide to restore GFP fluorescence.
Cell clones of various human cell lines constitutively expressing the non-fluorescent large GFPβ1-10 fragment, including H1299 non-small cell lung carcinoma, HaCaT immortalized keratinocytes, and MDA-MB-231 and MCF7 breast carcinomas, and assayed for reconstituted intracellular GFP fluorescence after treatment with transducible GFPβ11-PTD/CPP peptides by FACS (FIG. 1a). Starting with human H1299 cells, known to be a good model for PTD/CPP-mediated uptake, two GFPβ1-10 expressing clones were generated (c#G3 and c#G4) (FIG. 8a). GFPβ1-10 expressing H1299c#G3 cells were treated for 1.5 h with increasing amounts of transducible GFPβ11-TAT peptide (0-60 μM), followed by an additional 3.5 h in DMEM supplemented with 10% FBS. At 5 h post-addition of GFPβ11-TAT peptide, cells were trypsinized and live cell assayed by FACS.

[2] = test system: GFPβ1-10 expressing H1299c#G3 cells; type: cell-based, human; conditions: FACS FSC/SSC and viable cell number relative to untreated control cells
Text: Cell morphology and cell viability.

[3] = test system: GFPβ1-10 expressing HaCatc#G7 cells; test: split GFP fluorescence complementation transduction assay (FACS); type: cell-based, human; conditions: increasing amounts of peptide (FIG. 6)
Experimental: (§2) Cell culture, transfections and immunoblots. H1299, MCF7, MDA-MB-231 and HaCat cells were maintained in DMEM supplemented with 10% FBS, 100 U/ml penicillin, and 100 U/ml streptomycin. H1299c#G3, H1299c#G4, MCF7c#G7, MDA-MB-231c#G3 and HaCaTc#G7 cells were generated by transfecting cells with pCMV-mGFPβ1-10 and subsequently grown under hygromycin selection. Hygromycin resistant cells were then treated with GFPβ11-TAT and directly after, individual, transiently fluorescent clonal cells were isolated by FACS sorting. Clones were expanded and tested for stable GFPβ1-10 expression. H1299c#G3, H1299c#G4, MCF7c#G7, MDA-MB-231c#G3 and HaCaTc#G7 cells were maintained in DMEM supplemented with 10% FBS, 100 U/ml penicillin, 100 U/ml streptomycin and 80 or 100 ug/ml hygromycin. Transient transfections of siRNA or plasmid DNA were performed using Lipofectamine 2000 according to standard protocol. Immunblots were performed using 10% SDS-PAGE, semi-dry transfer (BioRad) and developed on ChemiDoc Imager (BioRad).
as §1, with “CO2 incubator for 1.5 h before addition of 500 μl DMEM supplemented with 10% FBS and another incubation round for 3.5 h in the 37° C.” left out

[4] = test system: GFPβ1-10 expressing MCF7c#G7 cells; test: as above; type: cell-based, human; conditions: increasing amounts of peptide (FIG. 6)
Experimental: as §2
as §1, with “CO2 incubator for 1.5 h before addition of 500 μl DMEM supplemented with 10% FBS and another incubation round for 3.5 h in the 37° C.” left out

[5] = test system: GFPβ1-10 expressing MDA-MB-231c#G3 cells; test: as above; type: cell-based, human; conditions: increasing amounts of peptide (FIG. 6)
Experimental: as §2
as §1, with “CO2 incubator for 1.5 h before addition of 500 μl DMEM supplemented with 10% FBS and another incubation round for 3.5 h in the 37° C.” left out

[6] = test system: GFPβ1-10 expressing MCF7c#G7 cells; conditions: increasing amounts of peptide (FIG. 6)
Experimental: (§3) Cell morphology and cell viability. Cell morphology was determined by FACS analysis of FSC and SSC. Gates were set manually for viable cells using untreated control cells as reference and the fraction of viable cells compared to non-viable cells was determined for each sample. Data are presented as the relative difference compared to non-treated control cells. Viable cells per sample were determined by measuring number of viable cells that were analyzed per second by FACS. Gates for viable cells were set manually using untreated control cells as reference. Data are presented as the relative difference compared to untreated control cells.

[7] = test system: GFPβ1-10 expressing MDA-MB-231c#G3 cells; conditions: increasing amounts of peptide (FIG. 6)
Experimental: as §3

[8] = test system: GFPβ1-10 expressing HaCatc#G7 cells; conditions: increasing amounts of peptide (FIG. 6)
Experimental: as §3

RDHMVLHEYVNAAGIT-GGSGGC-(S-S)-CGG-RKKRRQRRR-(PEG)6-GFWFG (disulfide bond, (PEG)6-GFWFG) [GFPβ11-(S-S)-TAT-P6-GFWFG]
GFP fluorescence / transduction compared to parental GFPβ11-(S-S)-TAT [1]: four-fold increase
cytotoxicity / morphological changes [2]: absence of any detectable cytotoxicity
GFP complementation compared to parental GFPβ11-(S-S)-TAT control peptide [3]: significantly enhanced GFP complementation
GFP complementation compared to parental GFPβ11-(S-S)-TAT control peptide [4]: significantly enhanced GFP complementation
GFP complementation compared to parental GFPβ11-(S-S)-TAT control peptide [5]: significantly enhanced GFP complementation
cytotoxicity [6]: Low to no cytotoxicity
cytotoxicity [7]: Low to no cytotoxicity
cytotoxicity [8]: Low to no cytotoxicity
